Data published in US20260242365A1, “USES OF CERTAIN 1,4-OXAZEPANE-2-CARBOXAMIDES AS DPP1 INHIBITORS” (Insmed Incorporated, priority 2023, published 2026).

What follows are molecules tested against T1, human DPP1 (Homo sapiens, UniProt P53634) (assay: Human DPP1 Enzyme IC50 Assay). Conditions: activated human DPP1 enzyme, H-Gly-Arg-AMC substrate.
T1 construct: was first proteolytically processed into its mature form using recombinant human cathepsin L; purchased R&D Systems
Type: biochemical
Description: Recombinant human DPP1 enzyme (R&D Systems; Minneapolis, MN) was first proteolytically processed into its mature form using recombinant human cathepsin L (R&D Systems) in a buffer consisting of 20 mM citric acid pH 4.5, 150 mM NaCl, 1 mM EDTA and 10 mM DTT. Alternatively, a crude lysate of HL-60 cells (ATCC; Manassas, VA) is used as a source of human DPP1 enzyme in the assay. Lysate was prepared in 1% Triton X-100 in PBS at a concentration of 20,000 live cells per μL of lysis buffer and centrifuged at 16,000×g for 10 minutes at 4° C., after which supernatant was collected and flash-frozen in liquid nitrogen.
Test articles were applied to activated human DPP1 enzyme in Assay Buffer (25 mM MES pH 6.0, 50 mM NaCl, 5 mM DTT) in a total reaction volume of 125 μL. 25 μL of compound in Assay Buffer plus 5% DMSO was first added to 50 μL of activated human DPP1 enzyme at a concentration of 1 ng/μL and allowed to pre-incubate for 10 minutes at 37° C. after which 50 μL of 1000 μM H-Gly-Arg-AMC substrate (Bachem; St. Torrance, CA) was added, giving final substrate concentration of 400 μM and a final DMSO concentration of 1%. Substrate cleavage was measured for 90 minutes at 37° C., with fluorescence at Excitation/Emission 350/450 nm measured every 5 minutes. DPP1 concentration was interpolated based on its activity relative to a standard curve of activated human recombinant DPP1 enzyme. IC50 values for each compound were calculated via the XLFit (IDBS Version 5.3.1.3) Add-On to Microsoft Excel using the four parameter fit equation y=(A+ ((B−A)/(1+ ((C/x)^D)))), which appears as equation number 205 (4 Parameter Logistic Model or Sigmoidal Dose-Response Model) in XLFit. Default constraints were used for each Parameter.

T1 sequence (P53634 25-134 limits assumed): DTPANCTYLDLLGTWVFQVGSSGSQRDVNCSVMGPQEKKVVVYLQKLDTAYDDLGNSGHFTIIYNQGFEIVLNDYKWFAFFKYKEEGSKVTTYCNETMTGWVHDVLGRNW
T1 sequence (P53634 231-394 limits assumed): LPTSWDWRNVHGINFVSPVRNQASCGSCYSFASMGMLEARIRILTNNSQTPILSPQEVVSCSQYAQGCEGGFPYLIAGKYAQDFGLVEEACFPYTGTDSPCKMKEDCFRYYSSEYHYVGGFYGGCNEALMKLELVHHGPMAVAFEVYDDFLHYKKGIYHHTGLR
T1 sequence (P53634 395-463 limits assumed): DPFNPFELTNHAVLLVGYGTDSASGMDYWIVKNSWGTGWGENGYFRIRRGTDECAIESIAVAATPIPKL

Structure (SMILES) | IC50 [nM]
COC1CNC[C@@H](C(=O)N[C@H](C#N)Cc2ccc(-c3ccc4oc(=O)n(C)c4c3)cc2)OC1 (mixture of isomers) [INSM-202, (6-rac)-(2S)—N-[(1S)-1-cyano-2-[4-(3-methyl-2-oxo-2,3-dihydro-1,3-benzoxazol-5-yl)phenyl]ethyl]-6-methoxy-1,4-oxazepane-2-carboxamide] | 1.03 ± 0.1
Cn1c(=O)oc2ccc(-c3ccc(C[C@@H](C#N)NC(=O)[C@@H]4CNC[C@H](O)CO4)cc3)cc21 (single isomer, unassigned) [INSM-201, (2S,6S*)—N-[(1S)-1-cyano-2-[4-(3-methyl-2-oxo-2,3-dihydro-1,3-benzoxazol-5-yl)phenyl]ethyl]-6-hydroxy-1,4-oxazepane-2-carboxamide] | 2.03 ± 0.2
COC1CNC[C@@H](C(=O)N[C@H](C#N)Cc2ccc(-c3ccc4oc(=O)n(C)c4c3)cc2)OC1 (single isomer, unassigned) [INSM-203, (2S,6R*)—N-[(1S)-1-cyano-2-[4-(3-methyl-2-oxo-2,3-dihydro-1,3-benzoxazol-5-yl)phenyl]ethyl]-6-methoxy-1,4-oxazepane-2-carboxamide] | 0.6 ± 0.1
